Laboratory results from PubChem BioAssay (NCI).
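Where inhibition never reached the appropriate level, the endpoint shown equals the highest concentration tested. Otherwise, values were interpolated linearly from a five-concentration, 48-hour dose response in 96-well plates. GI50 = concentration required for 50% inhibition of growth. At the TGI there is no net growth.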

What was measured:
Test in all cases: NCI anticancer screen, dose series, 48 h
A498 renal = test system: A498 renal
K-562 leukemia = test system: K-562 leukemia
SNB-19 CNS = test system: SNB-19 CNS
HS 578T breast = test system: HS 578T breast
OVCAR-8 ovarian = test system: OVCAR-8 ovarian
HOP-62 NSCLC = test system: HOP-62 NSCLC
786-0 renal = test system: 786-0 renal
SF-539 CNS = test system: SF-539 CNS
SF-268 CNS = test system: SF-268 CNS
OVCAR-5 ovarian = test system: OVCAR-5 ovarian
UACC-257 melanoma = test system: UACC-257 melanoma
U251 CNS = test system: U251 CNS
PC-3 prostate = test system: PC-3 prostate
M14 melanoma = test system: M14 melanoma
NCI/ADR-RES ovarian = test system: NCI/ADR-RES ovarian
SR leukemia = test system: SR leukemia
UO-31 renal = test system: UO-31 renal
NCI-H522 lung = test system: NCI-H522 lung
SNB-75 CNS = test system: SNB-75 CNS
KM12 colon = test system: KM12 colon
NCI-H226 lung = test system: NCI-H226 lung
SN12C renal = test system: SN12C renal
OVCAR-4 ovarian = test system: OVCAR-4 ovarian
BT-549 breast = test system: BT-549 breast
HOP-92 NSCLC = test system: HOP-92 NSCLC
CAKI-1 renal = test system: CAKI-1 renal
LOX IMVI melanoma = test system: LOX IMVI melanoma
HCT-116 colon = test system: HCT-116 colon
RPMI-8226 leukemia = test system: RPMI-8226 leukemia
HCC-2998 colon = test system: HCC-2998 colon
SW-620 colon = test system: SW-620 colon
SK-MEL-2 melanoma = test system: SK-MEL-2 melanoma
HT29 colon = test system: HT29 colon
SK-OV-3 ovarian = test system: SK-OV-3 ovarian
ACHN renal = test system: ACHN renal
HCT-15 colon = test system: HCT-15 colon
SF-295 CNS = test system: SF-295 CNS
MCF7 breast = test system: MCF7 breast
NCI-H460 lung = test system: NCI-H460 lung
RXF 393 renal = test system: RXF 393 renal
MDA-MB-435 = test system: MDA-MB-435
SK-MEL-28 melanoma = test system: SK-MEL-28 melanoma
MALME-3M melanoma = test system: MALME-3M melanoma
DU-145 prostate = test system: DU-145 prostate
A549 NSCLC = test system: A549 NSCLC
MOLT-4 leukemia = test system: MOLT-4 leukemia
NCI-H23 lung = test system: NCI-H23 lung
TK-10 renal = test system: TK-10 renal
MDA-MB-231 breast = test system: MDA-MB-231 breast
EKVX NSCLC = test system: EKVX NSCLC
COLO 205 colon = test system: COLO 205 colon
T-47D breast = test system: T-47D breast
SK-MEL-5 melanoma = test system: SK-MEL-5 melanoma
IGROV1 ovarian = test system: IGROV1 ovarian
OVCAR-3 ovarian = test system: OVCAR-3 ovarian
CCRF-CEM leukemia = test system: CCRF-CEM leukemia
HL-60(TB) leukemia = test system: HL-60(TB) leukemia
UACC-62 melanoma = test system: UACC-62 melanoma

## Brc1ccc2[nH]cc([C@H]3CN[C@@H](c4c[nH]c5ccc(Br)cc45)CN3)c2c1
A498 renal
  TGI: 4.53 µM
K-562 leukemia
  TGI: 4.54 µM
SNB-19 CNS
  TGI: > 23.9 µM
HS 578T breast
  TGI: 28.2 µM
OVCAR-8 ovarian
  TGI: 3.7 µM
HOP-62 NSCLC
  TGI: > 41.2 µM
786-0 renal
  TGI: 5.68 µM
SF-539 CNS
  TGI: 4.06 µM
SF-268 CNS
  TGI: 9.05 µM
OVCAR-5 ovarian
  GI50: 3.25 µM
  TGI: 12 µM
UACC-257 melanoma
  GI50: 7.39 µM
  TGI: 21.4 µM
U251 CNS
  TGI: 5.02 µM
PC-3 prostate
  TGI: 5.27 µM
M14 melanoma
  TGI: 3.38 µM
NCI/ADR-RES ovarian
  TGI: 4.52 µM
SR leukemia
  TGI: 5.2 µM
UO-31 renal
  TGI: 5.29 µM
NCI-H522 lung
  TGI: 3.27 µM
SNB-75 CNS
  GI50: 1.5 µM
  TGI: 8.46 µM
KM12 colon
  TGI: 3.25 µM
NCI-H226 lung
  TGI: 7.76 µM
SN12C renal
  TGI: 9.89 µM
OVCAR-4 ovarian
  TGI: 4.44 µM
BT-549 breast
  TGI: > 62 µM
HOP-92 NSCLC
  TGI: 6.05 µM
CAKI-1 renal
  TGI: 4.88 µM
LOX IMVI melanoma
  TGI: 2.82 µM
HCT-116 colon
  TGI: 4.68 µM
RPMI-8226 leukemia
  TGI: 6.04 µM
HCC-2998 colon
  TGI: 3.17 µM
SW-620 colon
  TGI: > 22.1 µM
SK-MEL-2 melanoma
  TGI: 5.54 µM
HT29 colon
  TGI: 4.68 µM
SK-OV-3 ovarian
  TGI: > 23.5 µM
ACHN renal
  TGI: 5.01 µM
HCT-15 colon
  TGI: 3.81 µM
SF-295 CNS
  GI50: 12.2 µM
  TGI: 27.6 µM
MCF7 breast
  TGI: 3.3 µM
NCI-H460 lung
  GI50: 3.04 µM
  TGI: 16.3 µM
RXF 393 renal
  TGI: > 25.4 µM
MDA-MB-435
  TGI: 3.18 µM
SK-MEL-28 melanoma
  TGI: > 52.6 µM
MALME-3M melanoma
  GI50: 2.79 µM
  TGI: 15 µM
DU-145 prostate
  TGI: 5.25 µM
A549 NSCLC
  TGI: 7.17 µM
MOLT-4 leukemia
  TGI: 4.95 µM
NCI-H23 lung
  TGI: 3.62 µM
TK-10 renal
  TGI: 4.78 µM
MDA-MB-231 breast
  GI50: 1.85 µM
  TGI: 3.81 µM
EKVX NSCLC
  TGI: 6.46 µM
COLO 205 colon
  TGI: 3.24 µM
T-47D breast
  GI50: 3.62 µM
  TGI: 18 µM
SK-MEL-5 melanoma
  TGI: 6.77 µM
IGROV1 ovarian
  TGI: 3.78 µM
OVCAR-3 ovarian
  TGI: 3.8 µM
CCRF-CEM leukemia
  TGI: 6.11 µM
HL-60(TB) leukemia
  TGI: 4.08 µM
UACC-62 melanoma
  TGI: > 45.9 µM

## O=C(O[C@H]1CN[C@H](C#Cc2cc3ncnc(Nc4ccc5c(cnn5Cc5ccccc5)c4)c3s2)C1)N1CCOCC1
A498 renal
  GI50: 0.998 µM
  TGI: 15.3 µM
K-562 leukemia
  GI50: 6.99 µM
  TGI: > 25 µM
SNB-19 CNS
  GI50: 7.71 µM
  TGI: > 25 µM
HS 578T breast
  GI50: 0.78 µM
  TGI: > 17 µM
OVCAR-8 ovarian
  GI50: 6.4 µM
  TGI: > 25 µM
HOP-62 NSCLC
  GI50: 4.86 µM
  TGI: > 25 µM
786-0 renal
  GI50: 7.16 µM
  TGI: > 25 µM
SF-539 CNS
  GI50: 4.18 µM
  TGI: > 19.1 µM
SF-268 CNS
  GI50: 4.43 µM
  TGI: 24.5 µM
OVCAR-5 ovarian
  GI50: 1.64 µM
  TGI: > 25 µM
UACC-257 melanoma
  GI50: 7.45 µM
  TGI: > 25 µM
U251 CNS
  GI50: 6.03 µM
  TGI: > 25 µM
PC-3 prostate
  GI50: 7.36 µM
  TGI: > 25 µM
M14 melanoma
  GI50: 5.22 µM
  TGI: > 25 µM
NCI/ADR-RES ovarian
  GI50: 9.55 µM
  TGI: > 25 µM
SR leukemia
  GI50: 7.53 µM
  TGI: > 25 µM
UO-31 renal
  GI50: 0.536 µM
  TGI: 13.3 µM
NCI-H522 lung
  GI50: 0.195 µM
  TGI: 4.26 µM
SNB-75 CNS
  GI50: 2.01 µM
  TGI: > 23 µM
KM12 colon
  GI50: 4.63 µM
  TGI: 10.5 µM
NCI-H226 lung
  GI50: 5.37 µM
  TGI: > 25 µM
SN12C renal
  GI50: 2.46 µM
  TGI: > 25 µM
OVCAR-4 ovarian
  GI50: 5.3 µM
  TGI: > 25 µM
BT-549 breast
  GI50: 3.35 µM
  TGI: 9.29 µM
HOP-92 NSCLC
  GI50: 1.29 µM
  TGI: > 25 µM
CAKI-1 renal
  GI50: 0.602 µM
  TGI: > 11.3 µM
LOX IMVI melanoma
  GI50: 5.88 µM
  TGI: > 25 µM
HCT-116 colon
  GI50: 3.74 µM
  TGI: > 25 µM
RPMI-8226 leukemia
  GI50: 5.38 µM
  TGI: 20.4 µM
HCC-2998 colon
  GI50: 5 µM
  TGI: > 25 µM
SW-620 colon
  GI50: 8.57 µM
  TGI: > 25 µM
SK-MEL-2 melanoma
  GI50: 4.31 µM
  TGI: 19.3 µM
HT29 colon
  GI50: 3.92 µM
  TGI: 11.5 µM
SK-OV-3 ovarian
  GI50: 0.0182 µM
  TGI: > 12.7 µM
ACHN renal
  GI50: 0.586 µM
  TGI: > 25 µM
HCT-15 colon
  GI50: 2.37 µM
  TGI: > 25 µM
SF-295 CNS
  GI50: 7.49 µM
  TGI: > 25 µM
MCF7 breast
  GI50: 5.91 µM
  TGI: > 25 µM
NCI-H460 lung
  GI50: 7.26 µM
  TGI: > 25 µM
RXF 393 renal
  GI50: 1.15 µM
  TGI: 11.5 µM
MDA-MB-435
  GI50: 6.08 µM
  TGI: > 25 µM
SK-MEL-28 melanoma
  GI50: 9.34 µM
  TGI: > 25 µM
MALME-3M melanoma
  GI50: 4.79 µM
  TGI: 23.7 µM
DU-145 prostate
  GI50: 2.16 µM
  TGI: > 22.9 µM
A549 NSCLC
  GI50: 3.71 µM
  TGI: > 25 µM
MOLT-4 leukemia
  GI50: 4.22 µM
  TGI: > 23.6 µM
NCI-H23 lung
  GI50: 11.3 µM
  TGI: > 25 µM
TK-10 renal
  GI50: 0.131 µM
  TGI: 1.83 µM
MDA-MB-231 breast
  GI50: 1.8 µM
  TGI: > 25 µM
EKVX NSCLC
  GI50: 0.234 µM
  TGI: > 11.4 µM
COLO 205 colon
  GI50: 3.78 µM
  TGI: 8.7 µM
T-47D breast
  GI50: 2.89 µM
  TGI: > 25 µM
SK-MEL-5 melanoma
  GI50: 6.18 µM
  TGI: > 25 µM
IGROV1 ovarian
  GI50: 0.805 µM
  TGI: > 18.7 µM
OVCAR-3 ovarian
  GI50: 3.1 µM
  TGI: 10.6 µM
CCRF-CEM leukemia
  GI50: 3.15 µM
  TGI: > 25 µM
HL-60(TB) leukemia
  GI50: 6.74 µM
  TGI: > 20.4 µM
UACC-62 melanoma
  GI50: 5.74 µM
  TGI: > 25 µM
